From article PMC4561586 (Biochimica et biophysica acta, 2015)

Molecular target: T1, Nostoc linoleate 10S-dioxygenase (10S-DOX) (Nostoc punctiforme, UniProt B2J5P4)
T1 sequence (B2J5P4 1-542): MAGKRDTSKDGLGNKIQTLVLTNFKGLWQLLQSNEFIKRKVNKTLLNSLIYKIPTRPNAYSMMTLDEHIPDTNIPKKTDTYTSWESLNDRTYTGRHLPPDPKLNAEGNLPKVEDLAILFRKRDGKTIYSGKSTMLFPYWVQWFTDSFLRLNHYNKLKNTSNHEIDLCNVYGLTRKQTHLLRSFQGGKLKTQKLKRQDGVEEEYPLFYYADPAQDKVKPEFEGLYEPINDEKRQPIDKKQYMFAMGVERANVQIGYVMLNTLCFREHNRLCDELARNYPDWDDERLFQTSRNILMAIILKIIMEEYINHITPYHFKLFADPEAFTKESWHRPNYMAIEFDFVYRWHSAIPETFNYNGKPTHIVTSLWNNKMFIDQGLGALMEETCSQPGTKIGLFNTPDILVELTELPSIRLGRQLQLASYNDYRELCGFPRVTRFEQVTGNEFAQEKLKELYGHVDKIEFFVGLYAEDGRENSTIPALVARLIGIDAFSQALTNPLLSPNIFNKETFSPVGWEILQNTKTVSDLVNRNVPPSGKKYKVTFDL
Assay: oxygen uptake kinetics
Assay type: biochemical

Km: 60.3 µM
SMILES: CCCCC/C=C\C/C=C\CCCCCCCC(=O)O [LA, linoleic acid]
